# In patent US11779664B2, “Targeted contrast agents for MRI of alpha-synuclein deposition” (Texas Children's Hospital, priority 2020, dated 2023):
# “Also recorded” adds a separate entry of the source.
# What was measured:
# [1] = target: T1, α-syn pathology (Lewy pathology) in human PD brain tissue (Homo sapiens, UniProt P37840); test: Fluorescent staining of post-mortem human PD brain tissue sections; details: frontal cortex sections, co-stained with Syn211 or Syn303, confocal microscopy
# T1 construct: tissue NIH Neurobiobank; host or cells: post-mortem human PD brain sections (frontal cortex, pons)
# Method: Sections from the pons and frontal-cortex of the PD brain were permeabilized and treated sequentially with antibody [Anti-alpha-Synuclein (aa 121-125) Antibody, clone Syn 211] and 1 μM solution of each compound and visualized by confocal microscopy. […] Column II depicts ligand fluorescence. Column III depicts fluorescence from the antibody. Column IV is a composite image created by merging the first three images. […] The pattern and labeling intensity appear similar in the antibody channel. […] In up close Z-stacked images of the treated tissue (Row C), the pathology appears to surround dark holes (arrows) in the ligand and antibody channels.
# To further characterize the sites labeled by the ligands and antibody Syn211 tissue staining experiments, contiguous cortical sections were treated with compound 8 and then either Syn211 or Syn303. As expected, the sections treated with compound 8 and Syn211 (FIG. 17, first row) show identical ligand and antibody labeling patterns that colocalize in the composite image. Both the ligand and antibody appear to label all forms of pathology present on the tissue. […]
# Midbrain tissue (Frontal cortex 5469) was embedded with Tissue-Tek O.C.T. Compound and kept in liquid nitrogen for 30 min. […] The tissue was imaged with Lecia DMi8 Motorized Fluorescence Microscope using standard excitation/emission filters for Alexa Fluor 488 or Alexa Fluor 647.
# α-syn fibrils = target: T2, α-syn fibrils (Homo sapiens, UniProt P37840); test: α-Syn fibril/ligand binding assay (fluorescence saturation binding); details: for selectivity for α-syn versus Aβ fibrils (comparison of Kd values): Kd Aβ fibrils vs Kd α-syn fibrils; for Kd: synthetic α-syn fibrils 2.5 μM, PBS, 37° C., 1 h
# T2 construct: purchased R-peptide S-1001-2
# Method: To this suspension was added 0.2 mL phosphate buffer (10 mM, pH 7.5). The soluble materials were removed by spinning for 5 min in a centrifuge (18000 g/s). The process was repeated four times. After the fourth time, the peptide was transferred into a microtube (200 μl), and 2.5 μl of 300 mM MnCl (made in water) was added. […] The fibrils formed were spun down at 21,000 g/s for 6 min. The supernatant was discarded, and the fibril pellet was resuspended in 200 μl PBS buffer (pH=7.4).
# The mixture was incubated at 37° C. for 1 h with shaking. The mixture was spun down at 21,000 g/s for 15 min to separate the fibrils. The precipitate was washed twice with Tris-HCl and resuspended in 200 μL buffer. […] All data points were performed in triplicate. The Kd and the maximal number of binding sites (Bmax) values were determined by fitting the data to the equation Y=Bmax×X/(X+Kd) by nonlinear regression using MATLAB software (R2019B).
# [2] = tested on: β-amyloid plaques in human AD brain tissue; test: Fluorescent staining of post-mortem human AD brain tissue sections; details: cortical sections, co-stained with 4G8 antibody
# Excerpt: To assess the observed selectivity in α-syn versus Aβ fibril binding on aggregates in human tissue, equimolar concentrations of ligands 8, 32, and 37 were further evaluated on PD tissue as described above, alongside cortical sections from neuropathologically verified post-mortem brain samples of AD patients. […] A similar labeling pattern and efficiency are observed in the antibody channel (column III). […] The antibody, anti-β-Amyloid, 17-24 Antibody (4G8), highlights both dense core and diffuse Aβ pathology (column III).
# Midbrain tissue (Frontal cortex 5590) was embedded with Tissue-Tek O.C.T. Compound and kept in liquid nitrogen for 30 mins. The embedded tissue was sliced into 30 μm thick sections with Lecia Biosystems Cryostats under −20° C. and mounted onto Precleaned Microscope Slides. The section was washed with 1× PBST two times and then loaded into 10% formalin solution for 20 mins. The section was washed with 1× PBS three times and permeabilized with 0.1% Triton-X 100 for 10 min. The section was washed with 1× PBS two times and incubated with 2% normal Donkey serum at room temperature for 1 h. […] The tissue was imaged with Lecia DMi8 Motorized Fluorescence Microscope using standard excitation/emission filters for Alexa Fluor 488 or Alexa Fluor 647.
SMILES,labeling of Lewy pathology in PD brain sections [1],selectivity for α-syn versus Aβ fibrils (comparison of Kd values) (α-syn fibrils) [fold],Kd (α-syn fibrils) [nM],labeling of Aβ pathology in AD brain sections [2]
"O=C(O)c1ccc(-c2ccc(/C=C/C=C3\Cc4ccc(O)cc4C3=O)cc2)cc1 [compound 32, 4′-((E)-3-((E)-6-Hydroxy-1-oxo-1,3-dihydro-2H-inden-2-ylidene)prop-1-en-1-yl)-[1,1′-biphenyl]-4-carboxylic acid]",avid labeling of Lewy pathology,26,18.8,
"COc1cc(/C=C/C=C2\Cc3ccccc3C2=O)ccc1O [compound 8, (E)-2-((E)-3-(4-Hydroxy-3-methoxyphenyl)allylidene)-2,3-dihydro-1H-inden-1-one]",avidly labels Lewy pathology; also recorded: labels all conformations of the pathology; also recorded: avid labeling of both large and fine deposits of the pathology,14.4,9.7,mostly dense core Aβ plaques
